For one assay, the target named is T1, orexin-2 receptor (OX2R) (Homo sapiens, UniProt O43614).
T1 construct: expressed in transfected cells; host or cells: CHO cells (membranes)
T1 sequence (O43614 1-444): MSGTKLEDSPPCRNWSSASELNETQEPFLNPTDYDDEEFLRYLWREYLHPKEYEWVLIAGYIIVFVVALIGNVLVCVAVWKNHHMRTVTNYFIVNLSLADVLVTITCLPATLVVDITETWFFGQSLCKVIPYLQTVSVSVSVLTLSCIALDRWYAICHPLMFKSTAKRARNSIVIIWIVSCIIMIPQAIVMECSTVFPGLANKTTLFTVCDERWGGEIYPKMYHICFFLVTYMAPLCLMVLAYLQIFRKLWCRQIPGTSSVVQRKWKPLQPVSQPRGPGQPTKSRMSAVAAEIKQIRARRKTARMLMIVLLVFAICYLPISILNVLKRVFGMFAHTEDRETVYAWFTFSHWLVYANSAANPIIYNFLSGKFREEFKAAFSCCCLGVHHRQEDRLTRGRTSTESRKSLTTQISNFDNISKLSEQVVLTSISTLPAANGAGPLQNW
Briefly: Radioligand binding assay, OX2R. The settings on record: membranes prepared from CHO cells expressing the orexin-2 (OX2) receptor.

For the next assay, the target named is T2, orexin-1 receptor (OX1R) (UniProt O43613).
T2 sequence (O43613 1-425): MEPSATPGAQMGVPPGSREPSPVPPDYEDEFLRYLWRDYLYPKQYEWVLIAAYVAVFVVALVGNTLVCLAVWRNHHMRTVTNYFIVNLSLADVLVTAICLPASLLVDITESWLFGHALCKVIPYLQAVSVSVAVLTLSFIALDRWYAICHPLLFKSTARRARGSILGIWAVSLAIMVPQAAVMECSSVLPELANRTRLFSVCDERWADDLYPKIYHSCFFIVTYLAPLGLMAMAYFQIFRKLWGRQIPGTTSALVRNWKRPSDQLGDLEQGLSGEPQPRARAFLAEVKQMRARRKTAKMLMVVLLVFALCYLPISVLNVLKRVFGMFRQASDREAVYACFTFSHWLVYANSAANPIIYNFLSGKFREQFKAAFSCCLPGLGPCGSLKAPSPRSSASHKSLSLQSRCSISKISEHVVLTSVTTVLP
Briefly: Radioligand binding assay, OX1R. The settings on record: membranes prepared from CHO cells expressing the orexin-1 (OX1) receptor.

For orientation: Ki means a measure of affinity in units of concentration, obtained from inhibition or displacement. Higher therefore signals lower affinity. Regarding `Cc1ccc(-n2nccn2)c(C(=O)N2C[C@H](COc3ccnc4ccccc34)OC[C@H]2C)c1` [A-12, 4-({(2R,5R)-5-methyl-4-[5-methyl-2-(2H-1,2,3-triazol-2-yl)benzoyl]morpholin-2-yl}methoxy)quinoline], the results for the Ki at orexin-2 receptor (OX2R) and at orexin-1 receptor (OX1R) were 39 nM and 17 nM, respectively.
For `Cc1ccc(-n2nccn2)c(C(=O)N2C[C@H](COc3ncccc3C)OC[C@H]2C)c1` [A-13, (2R,5R)-5-methyl-2-{[(3-methylpyridin-2-yl)oxy]methyl}-4-[5-methyl-2-(2H-1,2,3-triazol-2-yl)benzoyl]morpholine], in that order: 8.3 nM and 720 nM.
At orexin-1 receptor (OX1R), `Cc1ccc(-n2nccn2)c(C(=O)N2C[C@H](COc3nccc4ccccc34)OC[C@H]2C)c1` [A-9, 1-({(2R,5R)-5-methyl-4-[5-methyl-2-(2H-1,2,3-triazol-2-yl)benzoyl]morpholin-2-yl}methoxy)isoquinoline] yielded a Ki of 23 nM.
For `Cc1ccc(-n2nccn2)c(C(=O)N2C[C@H](COc3nccc4ccccc34)OC[C@H]2C)c1` [A-11, 1-({(2R,5R)-5-methyl-4-[5-methyl-2-(2H-1,2,3-triazol-2-yl)benzoyl]morpholin-2-yl}methoxy)isoquinoline], on orexin-1 receptor (OX1R), the inhibition constant Ki was found to be 2.2 nM.
On to `Cc1ccc(-n2nccn2)c(C(=O)N2C[C@H](COc3ccc(Br)cn3)OC[C@H]2C)c1` [A-10], for which the values for the Ki on orexin-2 receptor (OX2R) and at orexin-1 receptor (OX1R) were 1.3 nM and 21 nM, respectively.
